Assays:
[1] = pKa by potentiometric backtitration (catalysts, Table I); type: physicochemical; conditions: half-neutralization point taken as pKa; backtitration with 0.1N sodium hydroxide
Procedure: The solution was stirred for 10 minutes, then backtitrated with 0.1N sodium hydroxide solution. The pH during backtitration was measured potentiometrically using a Metrohm Model 670 TITROPROCESSOR™ potentiometer (Brinkman Instruments Inc., Westbury, NY). The endpoint and half-neutralization point were determined by the instrument, and for the purposes of this determination the half-neutralization point is taken as the pKa.

[2] = Farm.Zh. (Kiev) 1990, 1, 38; cited from earlier work
[3] = Khim.-Farm.Zh. 1983, 17, 916; cited from earlier work
[4] = pKa by potentiometric backtitration (compounds of Formula II, Table IX); type: physicochemical; conditions: half-neutralization point taken as pKa; backtitration with 0.01N sodium hydroxide
Procedure: Several of the compounds of the invention were characterized by their titration curves (i.e., their pKa values) as follows: To a 0.1 g sample of a compound of the invention was added with stirring 60 mL of distilled water, then 10 mL of 0.1N hydrochloric acid was added. The solution was stirred for 10 minutes. The pH of the solution was then measured potentiometrically using a Metrohm Model 670 TITROPROCESSOR™ potentiometer (Brinkman Instruments Inc., Westbury, NY) while backtitrating with 0.01N sodium hydroxide solution. The endpoints and half-neutralization points were determined by the instrument, and for the purposes of this determination the half-neutralization point is taken as the pKa.

Compound	Measured pKa first [4]	Measured pKa second [4]	further results
CN(C)CCOC(=O)CN(C)C [(CH3)2NCH2C(O)OCH2CH2N(CH3)2, 2-(N,N-Dimethylamino)ethyl N,N-Dimethylaminoacetate]			Measured pKa first [1]: 8.53; Measured pKa second [1]: 6.49
CCN(CC)CCOC(=O)CN(C)C [2-(Diethylamino)ethyl dimethylaminoacetate]			inotropic activity [2]: significant inotropic activity; analgesic activity [3]: analgesic activity
O=C(CN1CCCC1)OCCN1CCCC1 [2-(1-Pyrrolidinyl)ethyl 1-Pyrrolidineacetate]	9.26	7.12	
CN1CCCCC1COC(=O)CN1CCCC1 (stereo not shown) [2-(1-Methylpiperidyl)methyl 1-Pyrrolidineacetate]	9.15	7.03	
O=C(CN1CCCC1)OCCN1CCCCC1 [2-(1-piperidino)ethyl 1-pyrrolidineacetate]	8.97	6.72	

From patent publication EP0527427A2, “Catalysts and casting article, method, and composition” (MINNESOTA MINING AND MANUFACTURING COMPANY, priority 1991, dated 1993)
